Test: Solubility in second solution of Japanese Pharmacopoeia (0.2 M phosphate buffer, pH approx. 6.8)
Assay type: physicochemical
Procedure: The term “solubility” used herein means concentration of drug in a supernatant which is obtained by centrifugal separation of unsolved agent, after shaking a mixture prepared by adding the agent to the second solution defined in Japanese Pharmacopoeia [0.2 M phosphate-buffer (pH approx. 6.8), for more than 30 minutes at room temperature (about 15 to about 25° C.) in a rate of more than 100 times per minutes using, for example, a Recipro shaker (model SR-I, Taiyo Scientific Industrial Co., Ltd.).

## CONC(=O)Nc1ccc(-c2sc3c(c2CN(C)Cc2ccccc2)c(=O)n(-c2ccccc2)c(=O)n3Cc2c(F)cccc2F)cc1 [Reference example 7, 5-(N-Benzyl-N-methylaminomethyl)-1-(2,6-difluorobenzyl)-6-[4-(3-methoxyureido)phenyl]-3-phenylthieno[2,3-d]pyrimidine-2,4 (1H,3H)-dione]
  water solubility (in words): water-insoluble or slightly water-soluble
